Test results from patent US20090018157A1, “Chemical compounds” (priority 2003, published 2009).

Assays:
[1] = Estimation of plasma half-life; type: in vivo; settings: rat, typically determined following intravenous administration, read-out: t½ (half life in plasma) (converted)
From the text: The plasma half-life is the time taken for the concentration of compound in the plasma to decline to half of its original value. This is typically determined following intravenous administration of the test compound, followed by measurement of the compound concentrations in plasma samples as described above. The plasma half-life is estimated from a semilogarithmic plot, plotting the log of the plasma concentration (lnCp) against sample time (t, linear). The apparent first-order elimination rate constant, k, is equal to the slope of the line, and the elimination half-life (t½) is […] (Gibaldi, M and Perrier, D, 1975 Pharmacokinetics, Marcel Dekker, New York): […]

[2] = Plasma protein binding by equilibrium dialysis; type: in vitro ADME; settings: rat, 18 hours at 37° C., plasma vs isotonic phosphate buffer pH 7.4, read-out: % free in plasma
Protocol: The plasma protein binding of compounds was measured using the equilibrium dialysis technique (W. Lindner et al, J. Chromatography, 1996, 677, 1-28). Compound was dialysed at a concentration of 20 μM for 18 hours at 37° C. with plasma and isotonic phosphate buffer pH 7.4 (1 ml of each in the dialysis cell). A Spectrum® 20-cell equilibrium dialyser was used together with Teflon, semi-micro dialysis cells and Spectra/Por®2 membrane discs with a molecular weight cut off 12-14000 Dalton, 47 mm (supplied by PerBio Science UK Ltd, Tattenhall, Cheshire). Plasma and buffer samples are removed following dialysis and analysed using HPLCUV/MS (high performance liquid chromatography with UV and mass spec detection) to give the % free level in plasma.

[3] = Plasma levels following oral administration to rats; type: in vivo; settings: rat, normalised dose of 1 mg of compound per kilogram of rat body weight
Protocol: Planetary Milled compounds [15 mins, 500 rpm, 5 Zirconium Balls, in a Puluerisette 7 Mill (Glen Creston Ltd, Stanmore, Middlesex, UK)] were suspended in 0.5% HPMC Tween and dosed to High Fat Fed (Research Diets, D12451, ad lib feeding 14 days) Female Alderley Park Zucker or Alderley Park Wistar rats at rate of 5 mls/kg, at doses between 0.3 and 10 mg/kg by oral gavage.
Samples of plasma were obtained either by conscious blood sampling or terminal blood sampling as follows:
Conscious blood sampling (for compound level or blood chemistry)—Intravenous blood samples were taken from tail vein using 600 μl Starstedt Multivette (EDTA) and 22 G needle at the required time point. […]
The reconstituted samples were then analysed using high performance liquid chromatography with tandem mass spectrometry detection (HPLC-MS-MS)”. […]
The concentration of test samples was determined from the ratio of the peak height of the test sample to the peak height of the internal standard. The concentration of the test sample was calculated with reference to a standard curve relating the ratio to the concentration prepared by using known concentrations of test sample added to samples of rat plasma using (3-isopropoxy-5-benzyoxy-benzoyl)amino pyridine 3-carboxylic acid as an internal standard, treated as described above.

glucokinase (GLK) = biological target: T1, glucokinase (GLK) (Homo sapiens, UniProt P35557); assay: biochemical
T1 sequence (P35557 1-466 isoform P35557-2): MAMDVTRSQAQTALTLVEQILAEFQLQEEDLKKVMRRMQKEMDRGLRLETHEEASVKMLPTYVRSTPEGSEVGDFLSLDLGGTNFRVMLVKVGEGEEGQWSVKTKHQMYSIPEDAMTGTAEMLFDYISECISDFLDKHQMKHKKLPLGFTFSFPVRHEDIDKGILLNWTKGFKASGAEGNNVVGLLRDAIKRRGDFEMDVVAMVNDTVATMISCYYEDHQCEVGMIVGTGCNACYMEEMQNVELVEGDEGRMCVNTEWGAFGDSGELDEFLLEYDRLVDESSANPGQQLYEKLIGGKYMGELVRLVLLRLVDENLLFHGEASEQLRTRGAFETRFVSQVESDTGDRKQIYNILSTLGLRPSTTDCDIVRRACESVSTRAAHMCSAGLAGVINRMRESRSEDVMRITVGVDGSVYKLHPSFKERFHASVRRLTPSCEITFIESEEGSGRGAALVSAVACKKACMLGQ

With `COC[C@H](C)Oc1cc(Oc2ccc3c(c2)OCO3)cc(C(=O)Nc2ccc(C(=O)O)cn2)c1` [Example 2, 6-{[(3-(1,3-benzodioxol-5-yloxy)-5-{[(1S)-1-methyl-2-(methyloxy)ethyl]oxy}phenyl)carbonyl]amino}pyridine-3-carboxylic acid] the half-life [1] was 6.4 h, the fraction unbound at 18 hours, 20 μM [2] was 0.0026 and the “Peak Blood levels (including both bound and free)” value [3] was 2.7 µM. It also gave an EC50 (glucokinase (GLK)) of 0.06 µM.
